Measured values published in patent US20030186943A1, “Substituted gamma-phenyl-delta-lactams and uses related thereto” (Inflazyme Pharmaceuticals Ltd., priority 1998, published 2003).
Several values for one entry are separate records, joined by “and”; a condition that tells them apart may be missing. Equal values may be shown once.

Columns and labels:
[1] = system: TNBS-induced colitis in the rat; test: TNBS-induced colitis model of inflammatory bowel disease in the rat; conditions: for MPO Activity (U/mg): colonic tissue;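 for all read-outs here: rat colitis induced by intracolonic TNBS in 50% ethanol, distal colon assessed at sacrifice on day 7, with saline-instilled vehicle-treated rats as controls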
Description: Colitis was induced by intracolonic instillation of the hapten TNBS (60 mg/mL) in 0.5 mL of 50% ethanol. […] An additional group of rats received saline intracolonically in place of TNBS/ethanol and was treated with vehicle at the same times as outlined above. Body weights were recorded at the beginning of the study and at days 2 and 7.
The rats were sacrificed on the 7th day after the induction of colitis and the extent of damage and inflammation was assessed. After the rats were sacrificed, the distal colon was removed and pinned out on a wax platform. The presence or absence of diarrhea was noted, as well as the presence and severity of adhesions between the colon and other organs, and the severity and extent of colonic damage. […] After scoring, a sample of colonic tissue was excised for measurement of myeloperoxidase activity as an index of granulocyte infiltration (see Wallace et al., Gastroenterology 117: in press, 1999; and Morris et al., Gastroenterology 96:795-803, 1989). This tissue sample was 1 cm long (along the axis of the colon) and 5 mm wide and was taken from a region of macroscopically visible damage (or the corresponding region in any rats in which there was no damage). The remainder of the tissue was fixed in neutral buffered formalin and processed by routine methods for subsequent evaluation by light microscopy. In a blinded manner, the sample of colonic tissue from each rat was examined for evidence of mucosal ulceration and inflammation. The percentage of the luminal surface of the section in which ulceration was present was calculated.

[2] = system: T1, High Affinity Rolipram Binding Site of PDE4 in Mouse Brain; test: Displacement of [3H]-rolipram from its high affinity binding site (HARBS)
T1 construct: other: mouse brain membranes, [3H]-Rolipram; X marks this range; other: mouse brain membranes, [3H]; Suspension was centrifuged twice at 30,000×G at 4° C. and the supernatant discarded

Th1 cells = test: Proliferation of differentiated Th1 CD4+ T cells; format: cell-based, mouse; conditions: CD4+ T cells already differentiated into Th1 phenotype
Description: The differentiation of naive CD4 T cells toward Th1 and Th2 lineages was performed as follows: 1×10^5 AND-lymph node T cells were cultured with […] B10.BR irradiated spleen cells in 2 ml of culture media with the following supplements: for Th1 cell differentiation, 100 U/mL IFNγ, 25U/mL IL2 and 10 ug/mL anti-IL4; for Th2 cell differentiation, 150 U/mL IL4, 25 U/mL IL2 and 10 ug/mL anti-IFNγ. After 3-4 days the wells were split 1:4 with the same additions. After 7 days the cells were harvested and washed 3 times to remove cytokines in the supernatents. 1×10^5 cultured cells were restimulated with 5×10^5 irradiated B10BR spleen cells +5 μM pcc peptide in 250 μl culture media without any added cytokines. The supernatents were harvested after 40 hrs and assessed for IL2, IL4 and IFNγ by ELISA. Test compounds were added throughout the differentiation of the culture.
Cultured Th1 and Th2 cells generated in the absence of test compounds were tested for proliferation and cytokine activity as described above during antigen stimulation in the presence of compound.

[3] = 10 mg/kg intracolonically at 12 h intervals for one week, day 7

COc1cc(CC2C[C@@H](c3ccc(OC)c(OC4CCCC4)c3)COC2=O)ccc1O (stereo partly drawn) [Compound 43]
colonic damage score (% of vehicle) ([1]; 10 mg/kg): 49 % of vehicle | histological score (% of control) ([1]; 10 mg/kg): 52 % of control | incidence of adhesions (% of vehicle) ([1]; 10 mg/kg): 36 % of vehicle | thickness of the bowel wall (% of vehicle) ([1]; 10 mg/kg): 30 % of vehicle | total reduction in the global colitis score compared to vehicle treated animals ([1]; 10 mg/kg): 51% | Mortality ([1]; 10 mg/kg intracolonically at 12 h intervals for one week): 0/8 | Adhesion (Incidence) [1, 3]: (3/8)^ζ | Adhesion Score [1, 3]: 0.5 ± 0.3 | Bowel Thickness (mm) [1, 3]: 1.67 ± 0.28 mm | Damage Score [1, 3]: 3.4 ± 0.9 | Global Colitis Score [1, 3]: 5.86 ± 1.35 | MPO Activity (U/mg) [1, 3]: 65.1 ± 8.6 U/mg | MPO Activity (U/mg) ([1]; 10 mg/kg intracolonically at 12 h intervals for one week, day 7, 10 mg/kg): not prevented | Diarrhea ([1]; incidence, 10 mg/kg intracolonically at 12 h intervals for one week, day 7, 10 mg/kg): not statistically significant and 3/8 | Histology Score ([1]; percentage of luminal surface ulcerated, 10 mg/kg intracolonically for one week, day 7): 50.6 ± 10.5 | times less potent than rolipram for interaction with the HARBS conformer of PDE4 [2]: approximately 28 fold | IC50 ([2]; read-out: IC50 for displacement of 3H-rolipram from high-affinity binding site (HARBS activity), mouse brain): 250 nM | inhibition of Th1 cells (Th1 cells): approx. 30%
